The values below come from patent US20250281424A1 (New York Blood Center, Inc, priority 2020, published 2025).

Each structure is given as a SMILES string. Read-outs that look alike come from different tables or passages of the source.

Series [1] is described as follows: Experimentally determined log D. The class given is physicochemical.
A short description of series [2]: Mouse microsome stability. The class given is in vitro ADME. The following applies: for half-life at 0.5 μM: Mouse microsomes, compound conc = 0.5 μM, n = 1, read-out: Mouse microsome stability Half life t1/2; for intrinsic clearance in mouse microsome assay / stability in mouse microsome assay: mouse microsomes. The text has this: (§1) Certain exemplified compounds were examined for ADMET (absorption, distribution, metabolism, excretion and toxicity) profiling using conventional assays with the results shown in the Tables 3A-3C below.

The next series concerns Heparin-PF4-KKO mice. Description: In vivo activity, heparin-PF4-KKO induced thrombocytopenia (mouse model of HIT). As for the experimental part:
Heparin-PF4-KKO mice that were induced to thrombocytopenia were administered the compound of Example 1. The dosing regimen was guided by the PK results in Table 4 (see Example A6). At T0hr, 5 mg/kg of Compound 1 was given by retro-orbital injection. 1000 units/kg heparin was injected subcutaneously at T3hr. At T4hr, 20 mg/kg of KKO antibody was administered by retro-orbital injection. Also at T4hr, an additional 5 mg/kg of the compound was injected intraperitoneally. Platelet count was measured at T8hr.

A further series addresses T1, P450 1A2 (Homo sapiens, UniProt P05177).
T1 sequence (P05177 1-516): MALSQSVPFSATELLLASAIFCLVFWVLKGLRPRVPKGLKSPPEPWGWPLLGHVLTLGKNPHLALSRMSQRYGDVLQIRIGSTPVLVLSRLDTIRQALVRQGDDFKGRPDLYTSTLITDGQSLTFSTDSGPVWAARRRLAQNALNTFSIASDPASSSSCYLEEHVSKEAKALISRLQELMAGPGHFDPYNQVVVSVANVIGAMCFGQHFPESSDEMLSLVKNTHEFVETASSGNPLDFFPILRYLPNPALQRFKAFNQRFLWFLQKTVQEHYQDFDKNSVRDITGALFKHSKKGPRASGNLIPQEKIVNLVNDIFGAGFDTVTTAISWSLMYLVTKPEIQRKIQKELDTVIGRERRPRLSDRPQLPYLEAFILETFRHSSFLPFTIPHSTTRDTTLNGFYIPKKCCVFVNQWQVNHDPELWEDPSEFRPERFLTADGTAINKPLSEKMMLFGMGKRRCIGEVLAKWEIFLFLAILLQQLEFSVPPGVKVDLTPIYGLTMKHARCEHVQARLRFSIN
Description: P450 inhibition 1A2. The class given is in vitro ADME. As for the experimental part:
as §1
(§2) Examples 1 and 3 were evaluated as inhibitors of the five P450s that are the source of most DDI issues. […] The tested compounds meet drug property criteria for IV administration.

The target in another series is P450 2C19 (Homo sapiens, UniProt P33261). Description: P450 inhibition 2C19. The class given is in vitro ADME. As for the experimental part:
as §1, §2

The target in a further series is P450 2D6 (Homo sapiens, UniProt P10635). In words: P450 inhibition 2D6. In kind it is in vitro ADME. How it is done: as §1, §2
Sequence of P450 2D6 (P10635 whole entry): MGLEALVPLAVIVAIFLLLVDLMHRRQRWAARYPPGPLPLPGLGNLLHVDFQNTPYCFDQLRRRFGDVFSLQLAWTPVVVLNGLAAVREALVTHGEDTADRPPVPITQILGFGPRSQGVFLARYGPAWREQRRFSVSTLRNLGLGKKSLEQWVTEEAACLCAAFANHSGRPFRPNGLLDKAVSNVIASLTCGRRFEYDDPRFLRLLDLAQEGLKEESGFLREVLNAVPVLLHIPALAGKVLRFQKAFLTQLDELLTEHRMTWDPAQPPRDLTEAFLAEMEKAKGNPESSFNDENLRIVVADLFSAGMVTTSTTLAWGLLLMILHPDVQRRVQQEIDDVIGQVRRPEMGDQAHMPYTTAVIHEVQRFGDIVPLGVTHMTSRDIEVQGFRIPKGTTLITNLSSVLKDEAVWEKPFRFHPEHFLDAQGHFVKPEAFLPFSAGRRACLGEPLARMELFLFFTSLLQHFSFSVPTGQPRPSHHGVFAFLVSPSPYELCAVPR
The target of series [3] is T2, ultra large complexes (ULC) between PF4 tetramers and heparin (Homo sapiens, UniProt P02776).
T2 construct: platelet factor 4 which is a 70 amino acid, lysine-rich, 7.8 kDa platelet-specific protein
T2 sequence (P02776 32-101): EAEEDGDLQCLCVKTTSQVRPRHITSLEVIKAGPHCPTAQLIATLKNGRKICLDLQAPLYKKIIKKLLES
Description: Inhibition of formation of ultra large complexes (ULC) of PF4 tetramers and heparin. In kind it is biochemical. Conditions: for IC50: IC50 values are +/−20%. As for the experimental part:
Since ULCs are formed as part of a dynamic equilibrium between heparin and PF4, dynamic light scattering (DLS) was performed to measure the ability of the exemplified compounds to disrupt preformed ULCs. Samples were analyzed and included PF4 incubated in the absence or presence of unfractionated heparin (UFH) for 20 min at room temperature at PF4 to heparin ratios (PHR) of 1:0 (no heparin), 2:1, and 0.64:1. The samples were then analyzed using photon correlation spectroscopy on a DynaPro® DLS instrument and Dynamics® software (V6.7.6; […]) to obtain correlation function. The results of the DLS analysis indicate the percentage of ULCs and small PF4 particles. Data for the small particles (a population of particles with a mean hydrodynamic diameter of about 1 nm) and data for the large particles (a population of particles with a mean hydrodynamic diameter of about 300 nm) is assessed. Data are expressed as the percent of total intensity from each measurement, the mean of 10 measurements, and representative of two such experiments.
ELISA measurement and gel filtration measurement of ULC inhibition were performed as described in International Patent Publication No. WO2013/142328, which is incorporated herein by reference. Similarly, assays in which heparin concentrations are varied to determine the effect on ULC inhibition were performed as described in that publication.
Certain compounds were evaluated for their ability to inhibit formation of ultra large complexes (ULC) between PF4 tetramers and heparin.

A short description of series [4]: Experimentally determined pKa. In kind it is physicochemical.
A short description of series [5]: Pharmacokinetics after IV bolus in CD-1 mice. The class given is in vivo. As for the experimental part:
PK parameters were measured and reported in Table 4 as follows: C0 represents concentration in ng/ml at t=0 min; AUC0-last represents area under the curve for t=0 min to last time point; AUC0-∞ represents area under the curve for t=0 min to infinity.

The nature of series [6]: Plasma protein binding (PPB, mouse). In kind it is in vitro ADME. Conditions: mouse, plasma; read-out: PPB mouse (% bound) (converted).
Description: as §1

A further series concerns plasma protein. In words: Plasma protein binding (PPB, mouse). The class given is in vitro ADME.
Description: as §1

The mark [7] stands for this setting: mouse, plasma, CD-1 mice, 1 mg/kg IV bolus.

Sequence of P450 2C19 (P33261 whole entry): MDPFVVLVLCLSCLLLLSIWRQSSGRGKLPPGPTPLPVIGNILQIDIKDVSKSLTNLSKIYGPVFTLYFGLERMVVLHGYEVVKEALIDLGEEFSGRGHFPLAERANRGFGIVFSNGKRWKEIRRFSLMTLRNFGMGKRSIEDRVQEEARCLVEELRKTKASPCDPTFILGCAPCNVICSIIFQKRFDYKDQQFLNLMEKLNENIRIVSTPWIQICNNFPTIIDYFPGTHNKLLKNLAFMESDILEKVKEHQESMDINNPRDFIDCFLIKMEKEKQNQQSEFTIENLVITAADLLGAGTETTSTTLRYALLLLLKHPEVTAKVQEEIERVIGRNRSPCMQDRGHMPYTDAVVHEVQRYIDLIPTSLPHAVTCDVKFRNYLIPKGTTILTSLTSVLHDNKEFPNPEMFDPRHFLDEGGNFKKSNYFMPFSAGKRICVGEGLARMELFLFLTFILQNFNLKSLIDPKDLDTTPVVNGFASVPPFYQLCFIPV

As usually defined, the logD is lipophilicity at a set pH, counting ionised and neutral species. Low values mean lower lipophilicity, high ones higher lipophilicity. Broadly, the IC50 is the concentration at which inhibition is half-maximal. As a reminder, the pKa is the negative logarithm of the acid dissociation constant. The low end stands for a stronger acid or weaker base, the high end for a weaker acid or stronger base. By clearance is commonly meant a measure of how efficiently the substance is removed, as volume per time. Usually AUC(0-inf) stands for the area under the concentration-time curve extrapolated to infinity. Lower therefore signals less exposure. A word on the AUC(0-t): it is exposure summed from dosing to a finite time, without extrapolation to infinity. A lower AUC(0-t) goes with less exposure. In turn, `CC(=O)C1C(=O)c2ccc(C(=O)c3ccc4c(c3)C(=O)C(C(C)=O)C4=O)cc2C1=O` (centres unmarked) [Example 1, 5,5′-carbonylbis(2-acetyl-1h-indene-1,3(2h)-dione)] yielded a logD in [1] of 0.53. Besides, in [2], the half-life at 0.5 μM was more than 2.42 h, the “intrinsic clearance in mouse microsome assay” value is given as “low intrinsic clearance” and the “stability in mouse microsome assay” value was “excellent stability”. Moreover, in the series on Heparin-PF4-KKO mice (mice, 5 mg/kg IV and IP doses), the “tolerability” value was “tolerated the 5 mg/kg IV and IP doses of the compound well”. In the series with Heparin-PF4-KKO mice (mouse model of HIT (FIG. 4)), the “heparin-PF4-KKO induced thrombocytopenia in vivo” value was “reduces heparin-PF4-KKO induced thrombocytopenia in vivo”. In the series with Heparin-PF4-KKO mice (one of the four mice), the “platelet counts at 4 hr, remaining mouse” value is “only a little higher than DMSO controls”. Further, the “platelet counts 4 hr after KKO administration” value in the series on Heparin-PF4-KKO mice (three of the four mice, 5 mg/kg retro-orbital at T0hr + 5 mg/kg IP at T4hr) is on record as > 80 % of baseline. On P450 1A2, the IC50 came to 46.7 µM and the “inhibition of P450 1A2” value is “moderate inhibition”. Besides, on P450 2C19, the half-maximal inhibitory concentration (IC50) is more than 100 µM and the “inhibition of P450 2C19” value is recorded as “no inhibition”. Further, at P450 2D6, the IC50 was more than 100 µM and the “inhibition of P450 2D6” value is given as “no inhibition”. This compound came in with a concentration for half-maximal inhibition (IC50) in [3] of 8 µM. The same compound gave a pKa in series [4] of 1.99. Moreover, the “time the concentration was sustained above 1 μM” value in [5] (1 mg/kg, CD-1 mice (FIG. 5)) is given as “greater than 4 hours”. In series [5] (CD-1 mice, 1 mg/kg IV), the “clearance” value was “low clearance”; the “half-life” value is recorded as “long half-life”; the “volume of distribution” value was “low clearance and volume of distribution”. In [5] (setting [7]), the area under the curve AUC(0-inf) was 9350 ± 778 ng·h/mL and the AUC(0-t) stood at 9190 ± 704 ng·h/mL. For the same compound, the half-life in series [5] (mouse, plasma, CD-1 mice, 1 mg/kg IV bolus, average of 3 mice, read-out: t1/2 (converted)) is 4.59 ± 0.584 h. The compound further came in with a C0 in series [5] (mouse, plasma, CD-1 mice, 1 mg/kg IV bolus, concentration at t=0 min) of 15100 ± 2070 ng/mL. For the same compound, the clearance in [5] (mouse, plasma, CD-1 mice, 1 mg/kg IV bolus, read-out: Clearance) came out at 1.79 ± 0.147 mL/min/kg. Also, the Vd in [5] (mouse, plasma, CD-1 mice, 1 mg/kg IV bolus, read-out: Volume of distribution (Vdss)) was 0.448 ± 0.0121 L/kg.
As to `CCOC(=O)C1C(=O)c2ccc(C(=O)c3ccc4c(c3)C(=O)C(C(=O)OCC)C4=O)cc2C1=O` (centres unmarked) [Example 3, diethyl 5,5′-carbonylbis(1,3-dioxo-2,3-dihydro-1h-indene-2-carboxylate)], the half-life at 0.5 μM in series [2] was more than 2.42 h. For the same compound, in [2], the “intrinsic clearance in mouse microsome assay” value is listed as “low intrinsic clearance”. The “stability in mouse microsome assay” value in series [2] was “excellent stability”. Further, the IC50 was more than 100 µM on P450 1A2, more than 100 µM at P450 2C19 (read-out: P450 Inhibition IC50 2C19), more than 100 µM on P450 2D6 (read-out: P450 Inhibition IC50 2D6) and 2 µM in series [3]. Also, on P450 2C19, the “inhibition of P450 2C19” value is given as “no inhibition”. At P450 2D6, the “inhibition of P450 2D6” value is on record as “no inhibition”. In addition, in series [3] (FIG. 6B), the “inhibition of ULC formation” value was “dose-dependent inhibition”. Moreover, the fraction unbound in [6] was 0.043. The “protein binding” value in the series on plasma protein is “high protein binding”.
